Measurements as given in ChEMBL document CHEMBL6127132, “Design, Synthesis, and Biological Evaluation of Novel Diaminopyrimidine Macrocycles as Fourth Generation Reversible EGFR Inhibitors That Overcome Clinical Resistance to Osimertinib Mediated by C797S Mutation” (J Med Chem, 2024).

Experiments:
[1] = Antiproliferative activity against mouse BaF3 cells assessed as inhibition of cell proliferation incubated for 72 hrs by CCK-8 assay; assay type: toxicity, cell-based
[2] = target: Epidermal growth factor receptor (Mus musculus) (UniProt Q01279); test: Inhibition of EGFR phosphorylation in mouse BaF3 cells harboring EGFR L858R/T790M/C797S mutant preincubated for 2 hrs followed by EGF stimulation and measured after 15 mins by Western blot analysis; assay type: cell-based; conditions: dose 1-1000 nM, time 135.0 min
Sequence of Epidermal growth factor receptor (Mus musculus) (Q01279 whole entry): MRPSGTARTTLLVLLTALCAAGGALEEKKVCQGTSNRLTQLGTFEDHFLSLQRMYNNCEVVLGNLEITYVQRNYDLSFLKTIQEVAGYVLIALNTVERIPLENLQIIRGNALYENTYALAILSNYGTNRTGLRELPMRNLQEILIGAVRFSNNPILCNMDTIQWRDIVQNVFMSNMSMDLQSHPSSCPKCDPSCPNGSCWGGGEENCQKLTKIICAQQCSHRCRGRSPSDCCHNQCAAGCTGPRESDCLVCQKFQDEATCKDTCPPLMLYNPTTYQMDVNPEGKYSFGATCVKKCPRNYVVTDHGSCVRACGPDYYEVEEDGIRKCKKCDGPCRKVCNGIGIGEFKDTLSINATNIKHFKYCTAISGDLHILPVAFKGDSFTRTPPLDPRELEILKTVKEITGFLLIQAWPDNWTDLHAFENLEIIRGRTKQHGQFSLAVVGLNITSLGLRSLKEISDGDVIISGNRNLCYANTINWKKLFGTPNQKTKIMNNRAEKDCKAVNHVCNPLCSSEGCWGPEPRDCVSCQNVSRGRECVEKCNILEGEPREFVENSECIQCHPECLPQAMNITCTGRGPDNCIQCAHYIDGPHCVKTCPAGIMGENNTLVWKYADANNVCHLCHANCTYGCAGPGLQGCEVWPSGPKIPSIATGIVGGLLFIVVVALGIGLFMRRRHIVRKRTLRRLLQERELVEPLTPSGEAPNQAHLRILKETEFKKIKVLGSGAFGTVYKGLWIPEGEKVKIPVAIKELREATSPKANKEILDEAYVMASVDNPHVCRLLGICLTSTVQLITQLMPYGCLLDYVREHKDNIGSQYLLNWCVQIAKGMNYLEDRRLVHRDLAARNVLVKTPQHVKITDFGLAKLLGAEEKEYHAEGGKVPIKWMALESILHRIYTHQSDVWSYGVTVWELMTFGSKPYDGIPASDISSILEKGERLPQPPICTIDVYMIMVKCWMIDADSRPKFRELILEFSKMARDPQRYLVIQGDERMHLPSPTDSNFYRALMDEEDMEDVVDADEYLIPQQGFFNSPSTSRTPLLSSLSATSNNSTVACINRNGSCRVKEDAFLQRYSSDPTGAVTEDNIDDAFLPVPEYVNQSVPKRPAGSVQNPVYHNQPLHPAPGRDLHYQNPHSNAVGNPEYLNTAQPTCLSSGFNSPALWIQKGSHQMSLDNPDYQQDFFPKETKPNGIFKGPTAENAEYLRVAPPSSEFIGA

[3] = target: Epidermal growth factor receptor (Mus musculus) (UniProt Q01279); test: Inhibition of EGFR phosphorylation in mouse BaF3 cells harboring EGFR 19del/T790M/C797S mutant preincubated for 2 hrs followed by EGF stimulation and measured after 15 mins by Western blot analysis; assay type: cell-based; conditions: dose 1-1000 nM, time 135.0 min
[4] = target: Epidermal growth factor receptor (Mus musculus) (UniProt Q01279); test: Inhibition of EGFR downstream signaling in mouse BaF3 cells harboring EGFR L858R/T790M/C797S mutant assessed as reduction in phosphorylated ERK level preincubated for 2 hrs followed by EGF stimulation and measured after 15 mins by Western blot analysis; assay type: cell-based; conditions: dose 1-1000 nM, time 135.0 min
[5] = target: Epidermal growth factor receptor (Mus musculus) (UniProt Q01279); test: Inhibition of EGFR downstream signaling in mouse BaF3 cells harboring EGFR 19del/T790M/C797S mutant assessed as reduction in phosphorylated ERK level preincubated for 2 hrs followed by EGF stimulation and measured after 15 mins by Western blot analysis; assay type: cell-based; conditions: dose 1-1000 nM, time 135.0 min
[6] = Induction of apoptosis in mouse BaF3 cells harboring EGFR 19del/T790M/C797S mutant assessed as early apoptotic cells at 30 nM incubated for 48 hrs by Annexin V-FITC/PI staining based flow cytometric analysis (reference value: 0.46 %); assay type: functional
[7] = Induction of apoptosis in mouse BaF3 cells harboring EGFR 19del/T790M/C797S mutant assessed as late apoptotic cells at 30 nM incubated for 48 hrs by Annexin V-FITC/PI staining based flow cytometric analysis (reference value: 2.29 %); assay type: functional
[8] = Induction of apoptosis in mouse BaF3 cells harboring EGFR 19del/T790M/C797S mutant assessed as early apoptotic cells at 100 nM incubated for 48 hrs by Annexin V-FITC/PI staining based flow cytometric analysis (reference value: 0.46 %); assay type: functional
[9] = Induction of apoptosis in mouse BaF3 cells harboring EGFR 19del/T790M/C797S mutant assessed as late apoptotic cells at 100 nM incubated for 48 hrs by Annexin V-FITC/PI staining based flow cytometric analysis (reference value: 2.29 %); assay type: functional
[10] = Induction of apoptosis in mouse BaF3 cells harboring EGFR 19del/T790M/C797S mutant assessed as early apoptotic cells at 300 nM incubated for 48 hrs by Annexin V-FITC/PI staining based flow cytometric analysis (reference value: 0.46 %); assay type: functional
[11] = Induction of apoptosis in mouse BaF3 cells harboring EGFR 19del/T790M/C797S mutant assessed as late apoptotic cells at 300 nM incubated for 48 hrs by Annexin V-FITC/PI staining based flow cytometric analysis (reference value: 2.29 %); assay type: functional
[12] = Induction of apoptosis in mouse BaF3 cells harboring EGFR 19del/T790M/C797S mutant assessed as early apoptotic cells at 1000 nM incubated for 48 hrs by Annexin V-FITC/PI staining based flow cytometric analysis (reference value: 0.46 %); assay type: functional
[13] = Induction of apoptosis in mouse BaF3 cells harboring EGFR 19del/T790M/C797S mutant assessed as late apoptotic cells at 1000 nM incubated for 48 hrs by Annexin V-FITC/PI staining based flow cytometric analysis (reference value: 2.29 %); assay type: functional
BaF3 [14] = test: Induction of apoptosis in mouse BaF3 cells harboring EGFR 19del/T790M/C797S mutant assessed as caspase 3 cleavage incubated for 48 hrs by Western blot analysis; assay type: functional, cell-based; conditions: dose 30-1000 nM
[15] = Half-life in male SPF Sprague-Dawley rat at 2 mg/kg, iv measured after 24 hrs by LC-MS/MS analysis; assay type: ADME, organism-based; conditions: in vivo
[16] = Tmax in male SPF Sprague-Dawley rat at 2 mg/kg, iv measured after 24 hrs by LC-MS/MS analysis; assay type: ADME, organism-based; conditions: in vivo
[17] = Cmax in male SPF Sprague-Dawley rat at 2 mg/kg, iv measured after 24 hrs by LC-MS/MS analysis; assay type: ADME, organism-based; conditions: in vivo
[18] = AUC (0 to t) in male SPF Sprague-Dawley rat at 2 mg/kg, iv measured after 24 hrs by LC-MS/MS analysis; assay type: ADME, organism-based; conditions: in vivo
[19] = AUC (0 to infinity) in male SPF Sprague-Dawley rat at 2 mg/kg, iv measured after 24 hrs by LC-MS/MS analysis; assay type: ADME, organism-based; conditions: in vivo
[20] = Clearance in male SPF Sprague-Dawley rat at 2 mg/kg, iv measured after 24 hrs by LC-MS/MS analysis; assay type: ADME, organism-based; conditions: in vivo
[21] = MRT (0 to t) in male SPF Sprague-Dawley rat at 2 mg/kg, iv measured after 24 hrs by LC-MS/MS analysis; assay type: ADME, organism-based; conditions: in vivo
[22] = Half-life in male SPF Sprague-Dawley rat at 10 mg/kg, po measured after 24 hrs by LC-MS/MS analysis; assay type: ADME, organism-based; conditions: in vivo
[23] = Tmax in male SPF Sprague-Dawley rat at 10 mg/kg, po measured after 24 hrs by LC-MS/MS analysis; assay type: ADME, organism-based; conditions: in vivo
[24] = Cmax in male SPF Sprague-Dawley rat at 10 mg/kg, po measured after 24 hrs by LC-MS/MS analysis; assay type: ADME, organism-based; conditions: in vivo
[25] = AUC (0 to t) in male SPF Sprague-Dawley rat at 10 mg/kg, po measured after 24 hrs by LC-MS/MS analysis; assay type: ADME, organism-based; conditions: in vivo
[26] = AUC (0 to infinity) in male SPF Sprague-Dawley rat at 10 mg/kg, po measured after 24 hrs by LC-MS/MS analysis; assay type: ADME, organism-based; conditions: in vivo
[27] = MRT (0 to t) in male SPF Sprague-Dawley rat at 10 mg/kg, po measured after 24 hrs by LC-MS/MS analysis; assay type: ADME, organism-based; conditions: in vivo
[28] = Oral bioavailability in male SPF Sprague-Dawley rat at 10 mg/kg measured after 24 hrs by LC-MS/MS analysis; assay type: ADME, organism-based; conditions: in vivo
BaF3 [29] = test: Antitumor activity against mouse BaF3 cells harboring 19del/T790M/C797S mutant implanted in female BALB/c nu/nu mouse assessed as tumor growth inhibition at 20 mg/kg, po administered once daily for 9 days relative to control; assay type: functional; conditions: BaF3, 216 h, time 9 day, read-out: TGI
[30] = Toxicity in female BALB/c nu/nu mouse implanted with mouse BaF3 cells harboring 19del/T790M/C797S mutant assessed as mortality at 20 mg/kg, po administered once daily for 9 days; assay type: organism-based; conditions: in vivo, 216 h, time 9 day
[31] = Toxicity in female BALB/c nu/nu mouse implanted with mouse BaF3 cells harboring 19del/T790M/C797S mutant assessed as body weight loss at 20 mg/kg, po administered once daily for 9 days; assay type: organism-based; conditions: in vivo, 216 h, time 9 day
BaF3 [32] = test: cells; conditions: Mus musculus, BaF3, 72 h
BaF3 [33] = test: cells; conditions: Mus musculus, BaF3, 72 h; remark: listed apart in the source
cells = conditions: Homo sapiens, PC9-OR, 72 h
A-431 = test: cells; conditions: Homo sapiens, A-431, 72 h
Description: Antiproliferative activity against human A-431 cells harboring wildtype EGFR assessed as inhibition of cell proliferation measured after 72 hrs by SRB assay

COc1cc(N2CCOCC2)c2cc1Nc1ncc(C)c(n1)Nc1ccc(cc1P(C)(C)=O)OCCCn1cc-2cn1
IC50 at 72 h [1]: 2.1 µM | inhibition [2]: Dose-Dependent Effect | inhibition [3]: Dose-Dependent Effect | inhibition [4]: Dose-Dependent Effect | inhibition [5]: Dose-Dependent Effect | Activity [6]: 2.26% | Activity [7]: 1.64% | Activity [8]: 5.98% | Activity [9]: 3.44% | Activity [10]: 34.23% | Activity [11]: 16.34% | Activity [12]: 71.63% | Activity [13]: 17.31% | Activity (BaF3 [14]): Dose-Dependent Effect | half-life [15]: 5.54 h | Tmax [16]: 4.98 min | Cmax [17]: 2.15 µg/mL | AUC(0-t) at 24 h [18]: 7.63 µg·h/mL | AUC(0-inf) [19]: 7.9 µg·h/mL | clearance [20]: 0.256 L/h/kg | MRT last at 24 h [21]: 3.89 h | half-life [22]: 4.32 h | Tmax [23]: 1.67 h | Cmax [24]: 1.82 µg/mL | AUC(0-t) at 24 h [25]: 18 µg·h/mL | AUC(0-inf) [26]: 18.5 µg·h/mL | MRT last at 24 h [27]: 5.86 h | bioavailability [28]: 47% | inhibition in vivo at 20 mg/kg (BaF3 [29]): 65.4% | Activity [30]: Non-Toxic | Activity [31]: Non-Toxic | IC50 (BaF3 [32]): 0.041 µM | IC50 (BaF3 [33]): 0.052 µM | IC50 (cells): 0.056 µM | IC50 (A-431): 0.246 µM
